Tested on: mold growth on cheese chunks
Experiment: Mold growth on refrigerated cheese chunks exposed to ambient air after surface treatment
Description: In one particular embodiment, the material applied comprises a suspension of natamycin in an aqueous saline solution. […] In a preferred embodiment of the invention, the process applies an average surface concentration of about 1.0 to 1.1 μg/cm^2 to ensure that an adequate concentration is applied over substantially the entire exterior surface. Application of natamycian at these average surface concentrations with the apparatus of the invention ensures that substantially all of the cheese chunk surface area has a surface concentration of at least about 0.5 μg/cm^2.
The efficacy of an antimycotic agent may be measured in terms of the number of days during which mold growth is retarded in treated samples, relative to untreated control samples. Generally, if mold growth is retarded by 45 days or more, the antimycotic may be considered effective. The absolute length of time during which mold growth is delayed depends on the mold load in the ambient air, in addition to effects of antimycotic agents.

With `C[C@@H]1C/C=C/C=C/C=C/C=C/[C@H](O[C@@H]2O[C@H](C)[C@@H](O)[C@H](N)[C@@H]2O)C[C@@H]2O[C@](O)(C[C@@H](O)C[C@H]3O[C@@H]3/C=C/C(=O)O1)C[C@H](O)[C@H]2C(=O)O` [natamycin] the “number of days by which mold growth is retarded (relative to untreated control samples)” value (preferred embodiment (average surface concentration about 1.0 to 1.1 μg/cm^2), refrigerated at 35° F. to 45° F., exposed to ambient air) was “over 45 days”, the “time cheese chunks remained mold-free” value (preferred embodiment, in some cases, refrigerated at 35° F. to 45° F., exposed to ambient air) was “over 200 days” and the “surface concentration level found effective in preventing mold growth” value (refrigerated cheese chunks exposed to ambient air for extended periods, natamycin suspension in aqueous saline solution applied by spray) was “about 0.5 μg/cm^2”.
